Columns and labels:
Format in all cases: in vivo
Plutella xylostella = Plutella xylostella leaf dip method (cabbage leaves); details: foliar, second instar larvae, 72 h after release, dead and moribund combined, compared to untreated control, read-out: Percent mortality
Protocol: The leaf dip method was used for testing, wherein the required quantity of the compounds were weighed and dissolved in a surfactant solution, kept on a Vortex at 2000 rpm with zirconia beads for 90 min for proper mixing and then diluted with 0.01% Triton-X solution to the desired test concentration. Cabbage leaves were dipped in the solution for 10 seconds, shade dried for 20 min and then transferred to bioassay trays. A single second instar larva was released into each bioassay tray cell and the tray was covered with a lid. The bio-assay trays were kept under laboratory conditions at a temperature of 25° C. and relative humidity of 70%. Observations on dead, moribund and living larvae were recorded at 72 h after the release. Percent mortality was calculated by combining dead and moribund larvae and comparing the result to the one of the untreated control.

Bemisia tabaci = Bemisia tabaci leaf dip method (cotton leaves); details: foliar, freshly emerged adults, 72 h after release, dead and moribund combined, compared to untreated control, read-out: Percent mortality
Protocol: The leaf dip method was used for testing, wherein the required quantity of the test compounds were weighed and dissolved in surfactant solution, kepton a Vortex at 2000 rpm with zirconia beads for 90 min for proper mixing and then diluted with 0.01% Triton-X solution to the desired test concentration. Cotton leaves were dipped in the solution for 10 seconds, shade dried for 20 min and then the leaves were kept in glass units with the petiole dipped in water. Known numbers of freshly emerged adults were released and kept in the plant growth chamber at a temperature of 25° C. and relative humidity of 70%. Observations on dead, moribund and living adults were recorded at 72 h after the release. Percent mortality was calculated by combining dead and moribund adults and comparing the result to the one of the untreated control.

Myzus persicae = Myzus persicae leaf dip method (capsicum leaves); details: foliar, third instar nymphs, 72 h after release, dead and moribund combined, compared to untreated control, read-out: Percent mortality
Protocol: The leaf dip method was used for testing, wherein the required quantity of the test compounds were weighed and dissolved in a surfactant solution, kept on a Vortex at 2000 rpm with zirconia beads for 90 min for proper mixing and then diluted with 0.01% Triton-X solution to the desired test concentration. Capsicum leaves were dipped in the solution for 10 seconds, shade dried for 20 min and then the leaves were kept in glass units with the petiole dipped in water. Known numbers of third instar nymphs were released into the glass units and then kept in the plant growth chambers at a temperature of 25° C. and relative humidity of 70%. Observations on dead, moribund and living nymphs were recorded at 72 h after the release. Percent mortality was calculated by combining dead and moribund nymphs and comparing the result to the one of the untreated control. The compounds 9 14 16 22 23 50 71 104 and 131 were showing efficacy higher than 70 percent mortality @ 300 PPM.

Nilaparvata lugens = Nilaparvata lugens seedling dip method (paddy seedlings); details: third instar nymphs, 72 h after release, dead and moribund combined, compared to untreated control, read-out: Percent mortality
Protocol: Seedling dip method was used for screening, wherein the required quantity of the test compounds were weighed and dissolved in surfactant solution, kept on a Vortex at 2000 rpm with zirconia beads for 90 min for proper mixing, then diluted with 0.01% Triton-X solution to the desired test concentration. Paddy seedlings were dipped in the solution for 10 seconds, shade dried for 20 min and then transferred into glass tubes with the roots kept in water. Known numbers of third instar nymphs were released into the test tubes and the tubes were kept in the plant growth chamber at a temperature of 25° C. and relative humidity of 75%. Observations on dead, moribund and living nymphs were recorded at 72 h after the release. Percent mortality was calculated by combining dead and moribund nymphs and comparing the result to the one of the untreated control.

Spodoptera litura = Spodoptera litura diet incorporation method; details: third instar larvae, 96 h after release, dead and moribund combined, compared to untreated control, read-out: Percent mortality
Protocol: Diet incorporation method was used, in which the required quantity of test compounds were weighed and dissolved in surfactant solution, kept on vortex for 90 min for proper mixing, then diluted with water to the desired test concentrations. The solutions were incorporated into semi-synthetic diet when the temperature reached approximately 50° C. in the bioassay containers. The diet and solution was stirred thoroughly for properly mixing and was left to cool for 30 min. The solidified diet was cut into equal pieces, and then each piece was transferred into one cell of the bio-assay trays. A single starved third instar larva was released into each of these cells of the bioassay trays and the tray was covered with a lid. The bio-assay trays were kept under laboratory conditions at a temperature of 25° C. and relative humidity of 70%. Observations on dead, moribund and alive larvae were recorded at 96 h after the release of the larvae. Percent mortality was calculated by combining dead and moribund larvae and comparing the result to the one of the untreated control.

Helicoverpa armigera = Helicoverpa armigera diet incorporation method; details: third instar larvae, 96 h after release, dead and moribund combined, compared to untreated control, read-out: Percent mortality
Protocol: Diet incorporation method was used, in which the required quantity of test compounds were weighed and dissolved in a surfactant solution, kept on vortex for 90 min for proper mixing, then was diluted with water to the desired test concentrations. The solutions were incorporated into semi-synthetic diet when the temperature reached approximately 50° C. in the bioassay containers. The diet and solution was stirred thoroughly for properly mixing and then left to cool for 30 min. The solidified diet was cut into equal pieces, and then each piece was transferred into one cell of the bio-assay trays. A single third starved instar larva was released into each of these cells of the bioassay trays and each tray was covered with a lid. The bio-assay trays were kept under laboratory conditions at a temperature of 25° C. and relative humidity of 70%. Observations on dead, moribund and alive larvae were recorded at 96 h after the release of the larvae. Percent mortality was calculated by combining dead and moribund larvae and comparing the result to the one of the untreated control.

Row | Structure (SMILES) | mortality at 300 ppm (Plutella xylostella) [%] | mortality at 300 ppm (Bemisia tabaci) [%] | mortality at 300 ppm (Myzus persicae) [%] | mortality at 300 ppm (Nilaparvata lugens) [%] | mortality at 300 ppm (Spodoptera litura) [%] | mortality at 300 ppm (Helicoverpa armigera) [%]
1 | CCSc1nn2c(-c3ccc(Cl)c(F)c3)ccnc2c1-c1nc2cc(C(F)(F)F)ncc2n1C [Compound 119, 2-(7-(4-Chloro-3-fluorophenyl)-2-(ethylthio)pyrazolo[1,5-a]pyrimidin-3-yl)-3-methyl-6-(trifluoromethyl)-3H-imidazo[4,5-c]pyridine] | > 70 | > 70 | – | – | – | –
2 | CCSc1nn2c(C)ccnc2c1-c1nc2cc(C(F)(F)F)cnc2n1C [Compound 131, 2-(2-(Ethylthio)-7-methylpyrazolo[1,5-a]pyrimidin-3-yl)-3-methyl-6-(trifluoromethyl)-3H-imidazo[4,5-b]pyridine] | > 70 | – | > 70 | – | – | –
3 | CCSc1nn2cccnc2c1-c1nc2cc(C(F)(F)F)ncc2n1C [Compound 22, 2-(2-(Ethylthio)pyrazolo[1,5-a]pyrimidin-3-yl)-3-methyl-6-(trifluoromethyl)-3H-imidazo[4,5-c]pyridine] | > 70 | > 70 | > 70 | – | – | –
4 | CCS(=O)(=O)c1nn2cc(-c3ccc(Cl)cc3)cnc2c1-c1nc2cc(C(F)(F)F)cnc2n1C [Compound 63, 2-(6-(4-Chlorophenyl)-2-(ethylsulfonyl)pyrazolo[1,5-a]pyrimidin-3-yl)-3-methyl-6-(trifluoromethyl)-3H-imidazo[4,5-b]pyridine] | > 70 | – | – | > 70 | > 70 | –
5 | CCS(=O)(=O)c1nn2cccnc2c1-c1nc2cc(C(F)(F)F)ncc2n1C [Compound 23, 2-(2-(Ethylsulfonyl)pyrazolo[1,5-a]pyrimidin-3-yl)-3-methyl-6-(trifluoromethyl)-3H-imidazo[4,5-c]pyridine] | – | – | > 70 | – | – | –
6 | CCS(=O)(=O)c1nn2cc(Br)cnc2c1-c1nc2cc(C(F)(F)F)cnc2n1C [Compound 71, 2-(6-Bromo-2-(ethylsulfonyl)pyrazolo[1,5-a]pyrimidin-3-yl)-3-methyl-6-(trifluoromethyl)-3H-imidazo[4,5-b]pyridine] | > 70 | – | > 70 | – | – | –
7 | CCSc1nn2c(C)cc(C)nc2c1-c1nc2cc(C(F)(F)F)cnc2n1C [Compound 9, 2-(2-(Ethylthio)-5,7-dimethylpyrazolo[1,5-a]pyrimidin-3-yl)-3-methyl-6-(trifluoromethyl)-3H-imidazo[4,5-b]pyridine] | > 70 | – | > 70 | – | – | –
8 | CCSc1nn2cccnc2c1-c1nc2cc(C(F)(F)F)cnc2n1C [Compound 14, 2-(2-(Ethylthio)pyrazolo[1,5-a]pyrimidin-3-yl)-3-methyl-6-(trifluoromethyl)-3H-imidazo[4,5-b]pyridine] | – | – | > 70 | – | – | –
9 | CCS(=O)(=O)c1nn2c(-c3ccc(Cl)c(Cl)c3)ccnc2c1-c1nc2cc(C(F)(F)F)cnc2n1C [Compound 104, 2-(7-(3,4-Dichlorophenyl)-2-(ethylsulfonyl)pyrazolo[1,5-a]pyrimidin-3-yl)-3-methyl-6-(trifluoromethyl)-3H-imidazo[4,5-b]pyridine] | > 70 | – | > 70 | – | – | > 70
10 | CCS(=O)(=O)c1nn2c(-c3cc(F)cc(Cl)c3)ccnc2c1-c1nc2cc(C(F)(F)F)cnc2n1C [Compound 103, 2-(7-(3-Chloro-5-fluorophenyl)-2-(ethylsulfonyl)pyrazolo[1,5-a]pyrimidin-3-yl)-3-methyl-6-(trifluoromethyl)-3H-imidazo[4,5-b]pyridine] | > 70 | – | – | – | > 70 | > 70
11 | CCS(=O)(=O)c1nn2cc(Cl)cnc2c1-c1nc2cc(C(F)(F)F)cnc2n1C [Compound 50, 2-(6-Chloro-2-(ethylsulfonyl)pyrazolo[1,5-a]pyrimidin-3-yl)-3-methyl-6-(trifluoromethyl)-3H-imidazo[4,5-b]pyridine] | > 70 | – | > 70 | – | – | –
12 | CCS(=O)(=O)c1nn2cccnc2c1-c1nc2cc(C(F)(F)F)cnc2n1C [Compound 16, 2-(2-(Ethylsulfonyl)pyrazolo[1,5-a]pyrimidin-3-yl)-3-methyl-6-(trifluoromethyl)-3H-imidazo[4,5-b]pyridine] | – | – | > 70 | – | – | –
13 | CCSc1nn2c(-c3ccc(OC(F)(F)C(F)F)cc3)ccnc2c1-c1nc2cc(C(F)(F)F)ncc2n1C [Compound 93, 2-(2-(Ethylthio)-7-(4-(1,1,2,2-tetrafluoroethoxy)phenyl)pyrazolo[1,5-a]pyrimidin-3-yl)-3-methyl-6-(trifluoromethyl)-3H-imidazo[4,5-c]pyridine] | > 70 | – | – | – | > 70 | > 70
14 | CCS(=O)(=O)c1nn2c(-c3cc(Cl)cc(Cl)c3)ccnc2c1-c1nc2cc(C(F)(F)F)cnc2n1C [Compound 26, 2-(7-(3,5-Dichlorophenyl)-2-(ethylsulfonyl)pyrazolo[1,5-a]pyrimidin-3-yl)-3-methyl-6-(trifluoromethyl)-3H-imidazo[4,5-b]pyridine] | > 70 | – | – | – | > 70 | > 70
15 | CCS(=O)(=O)c1nn2c(-c3cc(F)cc(F)c3)ccnc2c1-c1nc2cc(C(F)(F)F)cnc2n1C [Compound 101, 2-(7-(3,5-Difluorophenyl)-2-(ethylsulfonyl)pyrazolo[1,5-a]pyrimidin-3-yl)-3-methyl-6-(trifluoromethyl)-3H-imidazo[4,5-b]pyridine] | > 70 | – | – | – | > 70 | > 70
16 | CCSc1nn2c(-c3ccc(OC(F)(F)C(F)F)cc3)ccnc2c1-c1nc2cc(C(F)(F)F)cnc2n1C [Compound 87, 2-(2-(Ethylthio)-7-(4-(1,1,2,2-tetrafluoroethoxy)phenyl)pyrazolo[1,5-a]pyrimidin-3-yl)-3-methyl-6-(trifluoromethyl)-3H-imidazo[4,5-b]pyridine] | > 70 | – | – | – | > 70 | > 70
17 | CCS(=O)(=O)c1nn2cc(-c3ccc(OC(F)(F)F)cc3)cnc2c1-c1nc2cc(C(F)(F)F)cnc2n1C [Compound 83, 2-(2-(Ethylsulfonyl)-6-(4-(trifluoromethoxy)phenyl)pyrazolo[1,5-a]pyrimidin-3-yl)-3-methyl-6-(trifluoromethyl)-3H-imidazo[4,5-b]pyridine] | > 70 | – | – | – | > 70 | > 70

Reference: patent US12384787B2, “Fused heterocyclic compounds and their use as pest control agents” (PI INDUSTRIES LTD., priority 2019, dated 2025)
